Molecules are shown by their SMILES.

Type in all cases: functional, cell-based
One assay relates to HCT-116/VM46. The experiment in a line: Cytotoxicity against human vinblastin-resistant HCT116/VM46 cells.
For a further assay, the system named is HCT-116. The experiment in a line: Cytotoxicity against human HCT116 cells.
In a further assay the test system is L1210. The assay is described as follows: Cytotoxicity against mouse L1210 cells.

As for `CCC1=C[C@H]2CN(CCc3c([nH]c4ccc(F)cc34)[C@@](C(=O)OC)(c3cc4c(cc3OC)N(C)[C@H]3[C@@](O)(C(=O)OC)[C@H](OC(C)=O)[C@]5(CC)C=CCN6CC[C@]43[C@@H]65)C2)C1`, the IC50 in the assay on HCT-116/VM46 worked out at 290 nM; with HCT-116, 50 nM; in the assay on L1210, 30 nM.

On to `CC[C@]1(O)C[C@H]2CN(CCc3c([nH]c4ccc(C#N)cc34)[C@@](C(=O)OC)(c3cc4c(cc3OC)N(C)[C@H]3[C@@](O)(C(=O)OC)[C@H](OC(C)=O)[C@]5(CC)C=CCN6CC[C@]43[C@@H]65)C2)C1`, for which the IC50 with HCT-116/VM46 was > 10000 nM; with HCT-116 it was 620 nM; in the assay on L1210 it was 630 nM.

Turning to `CCC1=C[C@H]2CN(CCc3c([nH]c4c(F)cccc34)[C@@](C(=O)OC)(c3cc4c(cc3OC)N(C)[C@H]3[C@@](O)(C(=O)OC)[C@H](OC(C)=O)[C@]5(CC)C=CCN6CC[C@]43[C@@H]65)C2)C1`, the figures for the IC50 in the assay with HCT-116/VM46, in the assay with HCT-116 and with L1210 were 6700 nM, 790 nM and 650 nM, respectively.

In the case of `CC[C@]1(O)C[C@H]2CN(CCc3c([nH]c4c(I)cccc34)[C@@](C(=O)OC)(c3cc4c(cc3OC)N(C)[C@H]3[C@@](O)(C(=O)OC)[C@H](OC(C)=O)[C@]5(CC)C=CCN6CC[C@]43[C@@H]65)C2)C1`, the figures for the IC50 in the assay on HCT-116/VM46, in the assay on HCT-116 and in the assay on L1210 were 910 nM, 80 nM and 55 nM, respectively.

Turning to `CC[C@]1(O)C[C@H]2CN(CCc3c([nH]c4c(Cl)cccc34)[C@@](C(=O)OC)(c3cc4c(cc3OC)N(C)[C@H]3[C@@](O)(C(=O)OC)[C@H](OC(C)=O)[C@]5(CC)C=CCN6CC[C@]43[C@@H]65)C2)C1`, the figures for the IC50 in the assay on HCT-116/VM46, with HCT-116 and in the assay with L1210 were 5000 nM, 220 nM and 330 nM, respectively.

For the molecule `CCC1=C[C@H]2CN(CCc3c([nH]c4ccc(Br)cc34)[C@@](C(=O)OC)(c3cc4c(cc3OC)N(C)[C@H]3[C@@](O)(C(=O)OC)[C@H](OC(C)=O)[C@]5(CC)C=CCN6CC[C@]43[C@@H]65)C2)C1`, the IC50 in the assay on HCT-116/VM46 was 860 nM; in the assay on HCT-116 it was 70 nM; with L1210, 65 nM.

In the case of `CC[C@]1(O)C[C@H]2CN(CCc3c([nH]c4ccc(SC)cc34)[C@@](C(=O)OC)(c3cc4c(cc3OC)N(C)[C@H]3[C@@](O)(C(=O)OC)[C@H](OC(C)=O)[C@]5(CC)C=CCN6CC[C@]43[C@@H]65)C2)C1`, the values for the IC50 in the assay on HCT-116/VM46, in the assay with HCT-116 and with L1210 were 780 nM, 50 nM and 50 nM, respectively.

In the case of `CC[C@]1(O)C[C@H]2CN(CCc3c([nH]c4ccc(OC)cc34)[C@@](C(=O)OC)(c3cc4c(cc3OC)N(C)[C@H]3[C@@](O)(C(=O)OC)[C@H](OC(C)=O)[C@]5(CC)C=CCN6CC[C@]43[C@@H]65)C2)C1`, the 50% inhibitory concentration (IC50) with HCT-116/VM46 was > 10000 nM; in the assay with HCT-116, 720 nM; in the assay on L1210 it was 670 nM.

For the molecule `CCC1=C[C@H]2CN(CCc3c([nH]c4ccc(O)cc34)[C@@](C(=O)OC)(c3cc4c(cc3OC)N(C)[C@H]3[C@@](O)(C(=O)OC)[C@H](OC(C)=O)[C@]5(CC)C=CCN6CC[C@]43[C@@H]65)C2)C1`, the results for the IC50 with HCT-116/VM46, in the assay on HCT-116 and in the assay with L1210 were 7200 nM, 500 nM and 590 nM, respectively.

On to `CCC1=C[C@H]2CN(CCc3c([nH]c4c(Br)cccc34)[C@@](C(=O)OC)(c3cc4c(cc3OC)N(C)[C@H]3[C@@](O)(C(=O)OC)[C@H](OC(C)=O)[C@]5(CC)C=CCN6CC[C@]43[C@@H]65)C2)C1`, for which the IC50 in the assay with HCT-116/VM46 was 3900 nM; in the assay on HCT-116 it was 740 nM; with L1210, 600 nM.

Consider `CCC1=C[C@H]2CN(CCc3c([nH]c4ccc(I)cc34)[C@@](C(=O)OC)(c3cc4c(cc3OC)N(C)[C@H]3[C@@](O)(C(=O)OC)[C@H](OC(C)=O)[C@]5(CC)C=CCN6CC[C@]43[C@@H]65)C2)C1`, for which the half-maximal inhibitory concentration (IC50) with HCT-116/VM46 was determined as 1800 nM; with HCT-116, 600 nM; with L1210 it was 620 nM.

As to `CC[C@]1(O)C[C@H]2CN(CCc3c([nH]c4ccc(Br)cc34)[C@@](C(=O)OC)(c3cc4c(cc3OC)N(C)[C@H]3[C@@](O)(C(=O)OC)[C@H](OC(C)=O)[C@]5(CC)C=CCN6CC[C@]43[C@@H]65)C2)C1`, the IC50 worked out at 270 nM in the assay on HCT-116/VM46, 8.6 nM in the assay with HCT-116 and 8 nM in the assay with L1210.

In the case of `CCC1=C[C@H]2CN(CCc3c([nH]c4ccc(SC)cc34)[C@@](C(=O)OC)(c3cc4c(cc3OC)N(C)[C@H]3[C@@](O)(C(=O)OC)[C@H](OC(C)=O)[C@]5(CC)C=CCN6CC[C@]43[C@@H]65)C2)C1`, the IC50 amounted to 770 nM in the assay with HCT-116/VM46, 85 nM in the assay with HCT-116 and 60 nM with L1210.

In the case of `CCC1=C[C@H]2CN(CCc3c([nH]c4c(I)cccc34)[C@@](C(=O)OC)(c3cc4c(cc3OC)N(C)[C@H]3[C@@](O)(C(=O)OC)[C@H](OC(C)=O)[C@]5(CC)C=CCN6CC[C@]43[C@@H]65)C2)C1`, the IC50 with HCT-116/VM46 came to 6200 nM; with HCT-116, 870 nM; in the assay with L1210 it was 690 nM.

With `CC[C@]1(O)C[C@H]2CN(CCc3c([nH]c4ccccc34)[C@@](C(=O)OC)(c3cc4c(cc3OC)N(C=O)[C@H]3[C@@](O)(C(=O)OC)[C@H](OC(C)=O)[C@]5(CC)C=CCN6CC[C@]43[C@@H]65)C2)C1` [VINCRISTINE], the IC50 in the assay with HCT-116 amounted to 7 nM; in the assay with L1210 it was 6 nM.

Turning to `CCC1=C[C@H]2CN(CCc3c([nH]c4ccc(OC)cc34)[C@@](C(=O)OC)(c3cc4c(cc3OC)N(C)[C@H]3[C@@](O)(C(=O)OC)[C@H](OC(C)=O)[C@]5(CC)C=CCN6CC[C@]43[C@@H]65)C2)C1`, the IC50 in the assay with HCT-116/VM46 came out at 5500 nM; in the assay with HCT-116 it was 640 nM; with L1210 it was 550 nM.

On to `CCC1=C[C@H]2CN(CCc3c([nH]c4c(Cl)cccc34)[C@@](C(=O)OC)(c3cc4c(cc3OC)N(C)[C@H]3[C@@](O)(C(=O)OC)[C@H](OC(C)=O)[C@]5(CC)C=CCN6CC[C@]43[C@@H]65)C2)C1`, for which the IC50 stood at 7300 nM in the assay on HCT-116/VM46, 880 nM with HCT-116 and 640 nM with L1210.

Consider `CCC1=C[C@H]2CN(CCc3c([nH]c4ccc(C)cc34)[C@@](C(=O)OC)(c3cc4c(cc3OC)N(C)[C@H]3[C@@](O)(C(=O)OC)[C@H](OC(C)=O)[C@]5(CC)C=CCN6CC[C@]43[C@@H]65)C2)C1`, for which the IC50 in the assay on HCT-116/VM46 is 640 nM; in the assay with HCT-116, 65 nM; with L1210 it was 65 nM.

Regarding `CCC1=C[C@H]2CN(CCc3c([nH]c4ccccc34)[C@@](C(=O)OC)(c3cc4c(cc3OC)N(C)[C@H]3[C@@](O)(C(=O)OC)[C@H](OC(C)=O)[C@]5(CC)C=CCN6CC[C@]43[C@@H]65)C2)C1`, the figures for the 50% inhibitory concentration (IC50) with HCT-116/VM46, with HCT-116 and in the assay with L1210 were 600 nM, 75 nM and 65 nM, respectively.

As to `CC[C@]1(O)C[C@H]2CN(CCc3c([nH]c4ccc(I)cc34)[C@@](C(=O)OC)(c3cc4c(cc3OC)N(C)[C@H]3[C@@](O)(C(=O)OC)[C@H](OC(C)=O)[C@]5(CC)C=CCN6CC[C@]43[C@@H]65)C2)C1`, the values for the 50% inhibitory concentration (IC50) in the assay with HCT-116/VM46, in the assay with HCT-116 and in the assay with L1210 were 840 nM, 60 nM and 55 nM, respectively.

Turning to `CC[C@]1(O)C[C@H]2CN(CCc3c([nH]c4ccc(C)cc34)[C@@](C(=O)OC)(c3cc4c(cc3OC)N(C)[C@H]3[C@@](O)(C(=O)OC)[C@H](OC(C)=O)[C@]5(CC)C=CCN6CC[C@]43[C@@H]65)C2)C1`, the 50% inhibitory concentration (IC50) amounted to 600 nM with HCT-116/VM46, 7.8 nM with HCT-116 and 7.8 nM in the assay with L1210.
